Patent US9149416B1, “High deposition cleansing system” (WELLMARK INTERNATIONAL, priority 2008, dated 2015)

Tested on: adult cat fleas
Assay: Residual flea efficacy trials on infested cats (Studies A-D)
Assay type: in vivo
Conditions: cleansing system 40 mg/kg vs topical at average 225 mg/kg
Description: The efficacy trials were performed using protocols that required the experimental group of infested cats to be compared with an untreated group of similarly infested animals.
The cleansing emulsion system formulation, containing 0.5% etofenprox was applied to the wet animals at the rate of 8 grams of cleansing system per kg of animal body weight. The 40% etofenprox topical was applied at the rate of 1 ml per cat for weights up to 5 lbs. (2.2 kg) and 2 ml per cat for those weighing greater than 5 lbs. (2.2 kg). The average rate of etofenprox applied to the cleansing system treated cats was 40 mg etofenprox per kg of body weight. The average rate of etofenprox applied to the topical treated cats was 225 mg per kg of body weight.
All test animals were infested with 100 unfed adult cat fleas prior to treatment. The cats were examined for the presence of live fleas at 24 to 48 hours after treatment. Residual data points were accomplished by infesting the treated animals at 14, 21 and 28 days after treatment. The animals were then examined for the presence of live fleas 48 hours after each infestation.

Structure (SMILES): CCOc1ccc(C(C)(C)COCc2cccc(Oc3ccccc3)c2)cc1 [Etofenprox]
- residual adult flea kill / residual efficacy compared with topical: residual efficacy results similar to 225 mg/kg BW rates required for topical formulations
